In experiment [1] the test system is A673 spheroids. As to the kind of experiment: Spheroid assay in 3D culture (methylcellulose). The class given is cell-based, human. The note with it: A673 spheroids in methylcellulose, scored 14 days after plating. The method, then: A673 cells were seeded on flat bottom non attachment 24 well plates (1000 cells/well) in triplicate using 1.2 % methylcellulose (Dow Chemical, Waterloo, NY) mixed with 20% FCS and specified concentrations of BO-1055 or 4HC as shown in Figure 1D. Samples were incubated at 37°C / 5 % CO2 and colonies were scored 14 days after plating.

In experiment [2] the test system is patient derived Ewing sarcoma xenografts. As to the kind of experiment: Cyclophosphamide resistant patient-derived Ewing sarcoma xenografts. The class given is in vivo, NSG mice. As to conditions: cyclophosphamide MTD 70mg/kg i.p. q2d for 3 doses. The method, then:
Patient derived xenografts were established from Ewing sarcoma patients who progressed through first line chemotherapy that included cyclophosphamide, doxorubicin, vincristine, ifosfamide and etoposide (PS3). When these Ewing sarcoma xenografts (n = 10) reached 100mm^3, they were randomized to control and treatment groups.
All mouse experiments were performed at the animal core facility at MSKCC under an approved protocol following the IACUC guidelines. Five to seven-week-old NOD/SCID IL2R gamma null (NSG) mice (bred at the Mouse Genetics Core Facility, MSKCC) were used for in vivo experiments. All mouse experiments were done following the IACUC guidelines at the animal facility at MSKCC. Tumors were induced using 10^6 A673 cells or A204 cells in 0.2ml 1:1 cellular medium, Matrigel matrix (BD Bioscience, Bedford, MA) and injected subcutaneously (s.q) into the right flank. The tumors were measured every 3 d with a caliper, and the diameters were recorded. Tumor volume was calculated by the formula a^2 b/2 where ‘a’ is the smallest and ‘b’ is the largest diameter. When the tumors reached 100mm^3, we randomized mice into control and drug treatment groups. Treatment groups received BO-1055 by tail vein injection at 10mg/kg, 20mg/kg and 30mg/kg q2d x 5 doses for mice bearing A673 xenografts. BO-1055 was given at 30mg/kg q2d x 5 doses for mice bearing A204 xenografts. […]
(In general: In xenograft studies the graft and the host belong to different species.)

In experiment [3] the test system is CCRF-CEM/Taxol cells. The arrangement: method as in PMID 21106377. The note with it: CCRF-CEM/Taxol ref 6; cited from earlier work.

On to `O=P1(N(CCCl)CCCl)NC(OO)CCO1` (stereo not drawn) [4-HC, 4-hydroperoxy cyclophosphamide, reference compound], for which, in experiment [1], the “concentration giving complete inhibition of spheroids” value turned out to be 5 µM.

`O=P1(N(CCCl)CCCl)NCCCO1` (stereo not drawn) [cyclophosphamide, reference compound]: the tumor growth result in experiment [2] was “not inhibited”.

Turning to `CC(=O)O[C@H]1C(=O)[C@@]2(C)[C@H]([C@H](OC(=O)c3ccccc3)[C@]3(O)C[C@H](OC(=O)[C@H](O)[C@@H](NC(=O)c4ccccc4)c4ccccc4)C(C)=C1C3(C)C)[C@]1(OC(C)=O)CO[C@@H]1C[C@@H]2O` [taxol, reference compound], the “resistance of CCRF-CEM/Taxol cells” value in experiment [3] is 330 fold.

The values above are taken from PMC5190008, “BO-1055, a novel DNA cross-linking agent with remarkable low myelotoxicity shows potent activity in sarcoma models” (Oncotarget, 2016).
